# Laboratory results published in patent US10421774B2 (priority 2016, dated 2019).
# Experiments:
# Assay in all cases: microbe, parasite or virus in culture
# Type in all cases: cell-based, HIV-1
# [1] = system: T332S/V362I/Pr R41G virus; settings: Human immunodeficiency virus 1, MT2, read-out: T332S/V362I/pr41G EC50
# Procedure, shortened: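 Renilla luciferase NL4-3 reporter virus (Gag P373S background) carrying Gag T332S/V362I plus protease R41G, inoculum normalized by luciferase signal, infected MT-2 cells (10,000/well). Compounds 3-fold diluted, 1% DMSO final. After 4–5 days at 37 °C, virus yield measured as Renilla luciferase activity in a multiple-cycle assay.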
# gag V370A/ΔT371 virus = settings: Human immunodeficiency virus 1, MT2, read-out: V370A/ΔT371 EC50
# Procedure, shortened: (§1)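 Multiple-cycle assay in MT-2 cells infected with Renilla luciferase NL4-3 (Gag P373S background) carrying site-directed Gag A364V or V370A/ΔT371 changes, inocula normalized by luciferase signal. 10,000 cells/well, 3-fold compound dilutions, 1% DMSO, 4–5 days at 37°C; yield read as Renilla luciferase.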
# [2] = system: A364V site directed mutant virus; settings: Human immunodeficiency virus 1, MT2, read-out: A364V EC50
# Procedure, shortened: as §1
# [3] = system: NLRepRlucP373S recombinant wild type (WT) virus; settings: Human immunodeficiency virus 1, MT2, read-out: WT EC50
# Procedure, shortened: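 MT-2 cells infected with NLRepRlucP373S Renilla luciferase reporter virus (NL4-3, Gag P373S), inocula normalized by luciferase signal; compounds 3-fold serially diluted, 1% DMSO final. Virus yield read by Renilla luciferase after 4-5 days at 37 °C. EC50/EC90 from median effect equation; background = signal at NFV 3 μM.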
Structure (SMILES),EC50 [1] [nM],EC50 (gag V370A/ΔT371 virus) [nM],EC50 [2] [nM],EC50 [3] [nM]
"C=C(C)[C@@H]1CC[C@]2(NCC[C@]3(O)CC[C@H](S(C)(=O)=O)CC3)CC[C@]3(C)[C@H](CC[C@@H]4[C@@]5(C)CC=C(C6=CC[C@](COc7ncccc7C#N)(C(=O)O)CC6)C(C)(C)[C@@H]5CC[C@]43C)[C@@H]12 [Example A6, (R)-1-(((3-cyanopyridin-2-yl)oxy)methyl)-4-((1R,3aS,5aR,5bR,7aR,11aS,11bR,13aR,13bR)-3a-((2-((1r,4S)-1-hydroxy-4-(methylsulfonyl)cyclohexyl)ethyl)amino)-5a,5b,8,8,11a-pentamethyl-1-(prop-1-en-2-yl)-2,3,3a,4,5,5a,5b,6,7,7a,8,11,11a,11b,12,13,13a,13b-octadecahydro-1H-cyclopenta[a]chrysen-9-yl)cyclohex-3-enecarboxylic acid]",8,8,5,2
"C=C(C)[C@@H]1CC[C@]2(NCC[C@]3(O)CC[C@H](S(C)(=O)=O)CC3)CC[C@]3(C)[C@H](CC[C@@H]4[C@@]5(C)CC=C(C6=CCC(COc7ccccn7)(C(=O)O)CC6)C(C)(C)[C@@H]5CC[C@]43C)[C@@H]12 (stereo partly drawn) [Example A2, 4-((1R,3aS,5aR,5bR,7aR,11aS,11bR,13aR,13bR)-3a-((2-((1r,4S)-1-hydroxy-4-(methylsulfonyl)cyclohexyl)ethyl)amino)-5a,5b,8,8,11a-pentamethyl-1-(prop-1-en-2-yl)-2,3,3a,4,5,5a,5b,6,7,7a,8,11,11a,11 b,12,13,13a,13b-octadecahydro-1H-cyclopenta[a]chrysen-9-yl)-1-((pyridin-2-yloxy)methyl)cyclohex-3-enecarboxylic acid]",8,8,14,1
"C=C(C)[C@@H]1CC[C@]2(NCCN3CCS(=O)(=O)CC3)CC[C@]3(C)[C@H](CC[C@@H]4[C@@]5(C)CC=C(C6=CCC(COc7nccc8ccc(OC)cc78)(C(=O)O)CC6)C(C)(C)[C@@H]5CC[C@]43C)[C@@H]12 (stereo partly drawn) [Example 35, 4-((1R,3aS,5aR,5bR,7aR,11aS,11bR,13aR,13bR)-3a-((2-(1,1-dioxidothiomorpholino)ethyl)amino)-5a,5b,8,8,11a-pentamethyl-1-(prop-1-en-2-yl)-2,3,3a,4,5,5a,5b,6,7,7a,8,11,11a,11 b,12,13,13a,13b-octadecahydro-1H-cyclopenta[a]chrysen-9-yl)-1-(((7-methoxyisoquinolin-1-yl)oxy)methyl)cyclohex-3-ene-1-carboxylic acid]",> 50,> 50,24,7
"C=C(C)[C@@H]1CC[C@]2(NCC[C@]3(O)CC[C@@H](S(C)(=O)=O)CC3)CC[C@]3(C)[C@H](CC[C@@H]4[C@@]5(C)CC=C(C6=CC[C@](COc7ncccc7C#N)(C(=O)O)CC6)C(C)(C)[C@@H]5CC[C@]43C)[C@@H]12 [Example A5, (R)-1-(((3-cyanopyridin-2-yl)oxy)methyl)-4-((1R,3aS,5aR,5bR,7aR,11aS,11bR,13aR,13bR)-3a-((2-((1s,4R)-1-hydroxy-4-(methylsulfonyl)cyclohexyl)ethyl)amino)-5a,5b,8,8,11a-pentamethyl-1-(prop-1-en-2-yl)-2,3,3a,4,5,5a,5b,6,7,7a,8,11,11a,11b,12,13,13a,13b-octadecahydro-1H-cyclopenta[a]chrysen-9-yl)cyclohex-3-enecarboxylic acid]",3,3,6,2
